Test systems include SF-295 CNS; TK-10 renal; SF-539 CNS; LOX IMVI melanoma; SN12C renal; HCC-2998 colon; CCRF-CEM leukemia; SW-620 colon; BT-549 breast; OVCAR-8 ovarian; SNB-75 CNS; SR leukemia; U251 CNS; A549 NSCLC; COLO 205 colon; HS 578T breast; SK-MEL-2 melanoma.
What all share (test): growth of human tumour cells (NCI), 48 h

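Tested at 5 concentrations; 48 h exposure; 96-well plates; endpoints linearly interpolated, else capped at highest concentration. TGI: total growth inhibition.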 Where only a bound is given, the exact number is not on record here.

Turning to `Oc1ccc(Br)cc1C=Nc1c(NC2CCCCC2)oc2ccc(Br)cc12`, the TGI with SF-295 CNS is > 100 µM; in the assay on TK-10 renal, > 100 µM; with SF-539 CNS, > 100 µM; with LOX IMVI melanoma, 38.7 µM; in the assay on SN12C renal, > 100 µM; in the assay with HCC-2998 colon, > 100 µM. For the same compound, the TGI in the assay with CCRF-CEM leukemia was 20.2 µM; with SW-620 colon it was > 100 µM; in the assay with BT-549 breast, 90.9 µM; in the assay on OVCAR-8 ovarian, > 100 µM; with SNB-75 CNS, 79.5 µM; with SR leukemia it was > 100 µM. The TGI with U251 CNS and with A549 NSCLC was > 100 µM in each case.
For the compound `CC(C(=O)NCNC(=O)c1ccccc1)C(=O)Nc1ccccc1` (stereo unspecified), the TGI with SF-295 CNS, with TK-10 renal, with SF-539 CNS, in the assay with COLO 205 colon, in the assay on HS 578T breast and with SN12C renal was > 100 µM throughout. Also, the TGI in the assay with CCRF-CEM leukemia, in the assay with SW-620 colon, in the assay with BT-549 breast, with OVCAR-8 ovarian, in the assay with SNB-75 CNS and in the assay on U251 CNS was > 100 µM each time. Besides, the TGI in the assay with A549 NSCLC and in the assay on SK-MEL-2 melanoma was > 100 µM each time.
With `CC1(C)CN(CC(=O)O)CC(Cc2ccc(OCC(=O)O)cc2)N(CC(=O)O)CC(C)(C)SS1` (stereo unspecified), the TGI in the assay on SF-295 CNS, in the assay with TK-10 renal, in the assay with SF-539 CNS, in the assay with COLO 205 colon, in the assay on LOX IMVI melanoma and in the assay on HS 578T breast was > 100 µM each time. The TGI with SN12C renal, with HCC-2998 colon, in the assay on SW-620 colon, in the assay on BT-549 breast, in the assay with OVCAR-8 ovarian and in the assay with SNB-75 CNS was > 100 µM throughout. Also, the TGI in the assay with U251 CNS, with A549 NSCLC and in the assay with SK-MEL-2 melanoma was > 100 µM each time.
Turning to `CN(C)c1ccc(N=C2N=C(Nc3ccccc3)C(=Nc3ccccc3)S2)cc1`, the TGI with SF-295 CNS, with TK-10 renal, in the assay on SF-539 CNS, in the assay with COLO 205 colon, in the assay with LOX IMVI melanoma and with HS 578T breast was > 100 µM in each case. In addition, the TGI was > 100 µM with SN12C renal; > 100 µM in the assay with HCC-2998 colon; > 100 µM in the assay with CCRF-CEM leukemia; > 100 µM with SW-620 colon; > 100 µM in the assay on OVCAR-8 ovarian; 81.4 µM in the assay on SNB-75 CNS. Further, the TGI in the assay with SR leukemia, in the assay with A549 NSCLC and with SK-MEL-2 melanoma was > 100 µM in each case.
As to `CCOC(=O)c1c(CN2CCNCC2)nc2ccc(Cl)cc2c1-c1ccccc1`, the TGI with SF-295 CNS is 5.97 µM; with TK-10 renal it was 10.8 µM; in the assay on SF-539 CNS, 7.56 µM; in the assay on COLO 205 colon it was 4.16 µM; with LOX IMVI melanoma, 3.26 µM; in the assay with SN12C renal, 15 µM. Moreover, the TGI with HCC-2998 colon amounted to 3 µM; in the assay on CCRF-CEM leukemia, 8.21 µM; in the assay with SW-620 colon it was 4.87 µM; in the assay on BT-549 breast, 27 µM; with OVCAR-8 ovarian it was 11.7 µM; with SNB-75 CNS it was 9.5 µM. The TGI in the assay with SR leukemia came out at 4.51 µM; with U251 CNS, 26.7 µM; in the assay on A549 NSCLC, 17.7 µM; in the assay with SK-MEL-2 melanoma, 3.36 µM.
Consider `N#CC(O)CCOCc1ccccc1` (stereo unspecified), for which the TGI in the assay with SF-295 CNS, in the assay with TK-10 renal, in the assay with SF-539 CNS, in the assay with COLO 205 colon, with LOX IMVI melanoma and with SN12C renal was > 100 µM throughout. For the same compound, the TGI with CCRF-CEM leukemia, in the assay on SW-620 colon, in the assay on BT-549 breast, in the assay on OVCAR-8 ovarian, with SR leukemia and with U251 CNS was > 100 µM throughout. In addition, the TGI with A549 NSCLC and in the assay on SK-MEL-2 melanoma was > 100 µM throughout.
As for `C/C(O)=C(/C=N/C(=S)Nc1ccccc1)C(=O)Nc1ccccc1C`, the TGI with SF-295 CNS, in the assay with TK-10 renal, in the assay with SF-539 CNS, in the assay with COLO 205 colon, with LOX IMVI melanoma and in the assay on HS 578T breast was > 100 µM each time. In addition, the TGI in the assay on SN12C renal, in the assay on HCC-2998 colon, in the assay on CCRF-CEM leukemia, in the assay with SW-620 colon, in the assay on OVCAR-8 ovarian and in the assay with SNB-75 CNS was > 100 µM in each case. The TGI with SR leukemia, with U251 CNS, in the assay on A549 NSCLC and with SK-MEL-2 melanoma was > 100 µM in each case.
Regarding `NC(=O)c1ncn(C2C=CC(CP(=O)(O)O)C2)c1N` (stereo unspecified), the TGI in the assay on SF-295 CNS, in the assay on TK-10 renal, with SF-539 CNS, in the assay with COLO 205 colon, with LOX IMVI melanoma and in the assay on HS 578T breast was > 100 µM throughout. For the same compound, the TGI with SN12C renal, with HCC-2998 colon, with CCRF-CEM leukemia, in the assay on SW-620 colon, in the assay on OVCAR-8 ovarian and in the assay on SNB-75 CNS was > 100 µM in each case. In addition, the TGI in the assay with SR leukemia, in the assay with U251 CNS, with A549 NSCLC and with SK-MEL-2 melanoma was > 100 µM in each case.
Turning to `C/C(=N\O)c1ccc(OCc2cc(C(F)(F)F)cc(C(F)(F)F)c2)cc1`, the TGI in the assay on SF-295 CNS, in the assay on TK-10 renal, in the assay on SF-539 CNS, in the assay on COLO 205 colon, with LOX IMVI melanoma and in the assay with HS 578T breast was > 100 µM throughout. Besides, the TGI with SN12C renal is > 100 µM; in the assay on HCC-2998 colon, 98.4 µM; with CCRF-CEM leukemia it was 89.3 µM; in the assay on SW-620 colon, > 100 µM; in the assay on OVCAR-8 ovarian it was > 100 µM; in the assay with SNB-75 CNS, > 100 µM. Further, the TGI with SR leukemia, with U251 CNS, in the assay on A549 NSCLC and in the assay on SK-MEL-2 melanoma was > 100 µM each time.

The values are drawn from PubChem BioAssay (NCI).
